Measured values from patent US10307409B2, “Muscarinic combinations and their use for combating hypocholinergic disorders of the central nervous system” (Chase Pharmaceuticals Corporation, priority 2015, dated 2019).

Tests used:
[1] = system: Male Swiss mice; assay: Dose-response to xanomeline in a mouse model of diarrhea (fecal pellet count); format: in vivo; conditions: xanomeline i.p. 0.3 to 30 mg/kg
Source text: Male Swiss mice (4-6 weeks old), N=10 per treatment group were used, and treated intra-peritoneally (i.p.) with either vehicle (vehicle group) or increasing doses of xanomeline, a representative muscarinic agonist. Mice were randomly assigned to one of two experimental groups (vehicle; or increasing doses of xanomeline). Each animal was identified by its group name, cage number, series (day) of experiment, and number (1 to 10) written with permanent ink on the tail.
Mice were placed individually in cages without any bedding materials. During the experiment the number of fecal pellets were counted at different time-points, starting one hour before the time of the administration of the test compound (T0), as outlined below: • T−1 h to T0: counting of the accumulated fecal pellets excreted. • T0: administration of the test compound, • T0 to T+2 h: counting of the accumulated fecal pellets excreted. • T+2 h to T+4 h: counting of the accumulated fecal pellets excreted.
The total number of fecal pellets for each mouse was counted over time. An analysis of variance (ANOVA) was performed on the results. Fisher's Protected Least Significant Difference was used for pairwise comparisons; p values ≤0.05 were considered significant. Grubbs' test (http://www.graphpad.com/quickcs/Grubbs1.cfm) was used to detect outliers for each parameter in each experimental group.

[2] = system: patients with Alzheimer disease; assay: Xanomeline 6-month double-blind, placebo-controlled, parallel group trial in Alzheimer disease patients; format: in vivo, human; conditions: in view of Mirza 2003; i.e. 225 mg/day
Source text: A close analog of tazomeline, the 3-(4-hexyloxy-1,2,5-thiadiazol-3-yl)-1-methyl-5,6-dihydro-2H-pyridine known as xanomeline and described in U.S. Pat. No. 5,043,345, the disclosure of which is incorporated herein by reference in its entirety, has been disclosed as a muscarinic acetylcholine receptor agonist with reasonable selectivity for the M1 and M4 subtypes. The efficacy of xanomeline, which stimulates muscarinic receptors in the brain and in the periphery was studied in patients with Alzheimer disease in a 6-month double-blind, placebo-controlled, parallel group trial. […] Such side effects prevented the use of doses of xanomeline that could achieve maximum anti-dementia efficacy and reflect stimulation of cholinergic receptors outside the brain.
Dose-limiting adverse events attending the use of drugs that stimulate cholinergic transmission, such as xanomeline, appear to primarily reflect the excessive stimulation of peripheral cholinergic receptors, especially those of the muscarinic type (mAChRs), such that in both healthy volunteers and Alzheimer's patients many of these side effects have been reported for xanomeline; in the patient population this led to a discontinuation rate higher than 50% while the effects on cognition were not robust and mainly seen at the highest doses tested (Mirza2003).

[3] = clinical study, Sramek 1995; cited from earlier work
[4] = system: patients with Alzheimer disease; conditions: cited from earlier work
[5] = system: primate; conditions: primate study, domperidone administered with BuTAC; cited from earlier work
[6] = clinical trials, Alzheimer disease; cited from earlier work
[7] = system: Male Swiss mice; assay: Antagonism of xanomeline-induced diarrhea in mice by oxybutynin (fecal pellet count); format: in vivo; conditions: i.p. oxybutynin 0.3 to 30 mg/kg, 30 min before xanomeline 30 mg/kg
Description: Male Swiss mice (4-6 weeks old), N=10 per treatment group were used. Animals were pretreated with i.p. oxybutynin (a representative peripheral muscarinic receptor antagonist) or vehicle; 30 minutes later animals were treated with xanomeline at a dose of 30 mg/kg that caused diarrhea (as determined in Experiment 1). The dose of oxybutynin ordinarily ranged from 0.3 to 30 mg/kg.
Mice were placed individually in cages without any bedding materials. During the experiment the number of fecal pellets was counted at different time-points as outlined below: • T−1 h to T0: counting of the accumulated fecal pellets excreted. • T0: administration of oxybutinin. • T30 min: administration of vehicle or xanomeline. • T 30 min to T 2.5 h: counting of accumulated fecal pellets excreted. • T+2.5 h to T+4.5 h: counting of accumulated fecal pellets excreted.
The total number of fecal pellets for each mouse was counted over time. An analysis of variance (ANOVA) was performed on the results. Fisher's Protected Least Significant Difference was used for pairwise comparisons. The p value ≤0.05 were considered significant. Grubbs' test (http//www atgraphpad.com/quickcalcs/Grubbs1.cfm) was used to detect outliers for each parameter in each experimental group.

[8] = system: Male Swiss mice; assay: T-maze continuous alternation task (T-CAT) with oxybutynin and xanomeline; format: in vivo; conditions: i.p. oxybutynin pretreatment 30 min before xanomeline
Source text: The T-maze continuous alternation task (T-CAT) is useful as model for studying compounds with cognitive enhancing properties. The T-maze consists of 2 choice arms and 1 start arm mounted to a square center. Manual doors are provided to close specific arms during the force choice alternation task.
Male Swiss mice (4-6 weeks old), N=10 per treatment group were used, and were pretreated with: • Oxybutynin at the dose that blocked fecal pellet excretion in Study 2 of Example 1.
Mice were randomly assigned to one of the different experimental treatment groups. Each animal was identified by its group name, cage number, series (day) of experiment, and number (1 to 10) written with permanent ink on the tail.
The T-maze apparatus is made of gray Plexiglas with a main stem (55 cm long×10 cm wide×20 cm high) and two arms (30 cm long×10 cm wide×20 cm high) positioned at 90 degree angle relative to the main stem. A start box (15 cm long×10 cm wide) is separated from the main stem by a guillotine door. […]
The percentage of alternation over the 14 free-choice trials was determined for each mouse and was used as an index of working memory performance. […]
Analysis of variance (ANOVA) was performed on the results. […] The drug-induced improvement of memory was calculated by setting the respective response of the saline/vehicle as 100% and that of the test group as 0% reversion. […]

[9] = transdermal [14C]oxybutynin, rats; cited from earlier work

CCCCCCOc1nsnc1C1=CCCN(C)C1 [xanomeline, 3-(4-hexyloxy-1,2,5-thiadiazol-3-yl)-1-methyl-5,6-dihydro-2H-pyridine]
diarrhea (fecal pellets excreted) [1]: dose-dependently causes diarrhea | maximum tolerated dose as considered in the context of the present invention [2]: 75 mg three times per day | MTD [3]: 100 mg three times a day | patients who discontinued treatment ([4]; 75 mg xanomeline orally three times daily, 6-month study, mainly adverse events, predominantly gastrointestinal): 59% | cognitive and behavioral symptoms of Alzheimer disease compared to placebo ([4]; 6-month trial (Bodick 1997; Shekhar 2008)): significantly improve cognitive and behavioral symptoms | side effects (bradycardia, gastro-intestinal distress, excessive salivation, sweating) ([4]; 6-month trial): dose-dependent unacceptable side effects | discontinuation rate in the patient population ([4]; Alzheimer's patients (Mirza 2003)): higher than 50%

O=c1[nH]c2ccccc2n1CCCN1CCC(n2c(=O)[nH]c3cc(Cl)ccc32)CC1 [domperidone, 5-chloro-1-(1-[3-(2-oxo-2,3-dihydro-1H-benzo[d]imidazol-1-yl)propyl]piperidin-4-yl)-1H-benzo[d]imidazol-2(3H)-one]
effect on BuTAC-induced vomiting [5]: mitigated

CO/N=C/C1=CCCN(C)C1 [milameline, (E)-N-methoxy-1-(1-methyl-1,2,5,6-tetrahydropyridin-3-yl)methanimine]
maximum tolerated dose [6]: 2 mg four times per day

CCN(CC)CC#CCOC(=O)C(O)(c1ccccc1)C1CCCCC1 (stereo not drawn) [oxybutynin, 4-diethylaminobut-2-ynyl 2-cyclohexyl-2-hydroxy-2-phenylethanoate]
antagonism of xanomeline-induced diarrhea [7]: dose-dependently antagonized the diarrhea induced by xanomeline | ability to perform the T-maze test after oxybutynin pretreatment [8]: restored the animals' ability to perform the T-maze test | brain penetration of radiolabel [9]: presence of radiolabel in the brain
